pIC50: −log10 of the molar value. Where two headings read alike, the source gives them in different places.
Tests used:
[1] = molecular target: T1, lipoxygenase (Rattus norvegicus, UniProt P12527); experiment: Inhibition of lipoxygenase derived from rat basophilic leukemia (RBL-1) cells, products L1 (5,12-di-HETE) and L2 (5-HETE); type: biochemical; settings: for inhibition at 10 µM: dose of 10 μM
T1 construct: microsomal fraction containing lipoxygenase and cyclooxygenase; endogenous in cells; host or cells: RBL-1 (rat basophilic leukemia) cells, homogenate / microsomal fraction
T1 sequence (P12527 1-673): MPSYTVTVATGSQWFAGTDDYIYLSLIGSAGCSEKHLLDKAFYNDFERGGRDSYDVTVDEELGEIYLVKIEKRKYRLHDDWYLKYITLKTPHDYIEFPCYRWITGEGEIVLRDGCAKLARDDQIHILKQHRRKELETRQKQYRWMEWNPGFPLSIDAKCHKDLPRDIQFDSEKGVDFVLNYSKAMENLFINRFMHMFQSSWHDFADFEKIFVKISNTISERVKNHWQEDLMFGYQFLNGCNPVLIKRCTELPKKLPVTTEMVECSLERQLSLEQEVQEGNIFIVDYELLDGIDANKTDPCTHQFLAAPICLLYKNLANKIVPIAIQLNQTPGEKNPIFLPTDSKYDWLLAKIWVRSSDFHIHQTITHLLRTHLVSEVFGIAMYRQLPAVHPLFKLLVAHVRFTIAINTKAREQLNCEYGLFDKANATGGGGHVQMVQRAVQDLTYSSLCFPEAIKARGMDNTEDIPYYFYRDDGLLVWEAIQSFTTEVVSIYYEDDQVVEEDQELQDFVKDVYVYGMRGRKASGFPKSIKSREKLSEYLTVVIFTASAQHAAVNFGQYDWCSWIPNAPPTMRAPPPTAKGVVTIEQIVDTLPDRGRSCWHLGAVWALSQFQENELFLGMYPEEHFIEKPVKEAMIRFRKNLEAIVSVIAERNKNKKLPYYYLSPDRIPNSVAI
Experimental: (§1) The primary screening test used is a determination of the inhibition of lipoxygenase and cyclooxygenase derived from rat basophilic leukemia (RBL-1) cells. The test was carried out according to the following procedure:
(§2) Single cell suspensions of RBL-1 cells are homogenized to obtain the microsomal fraction containing lipoxygenase and cyclooxygenase. Test compounds are added to the enzyme-containing homogenate for a 5 min preincubation period at 37° C. prior to the addition of ^14 C-arachidonic acid substrate. Following incubation at 37° C. for 15 min, the reaction is stopped by the addition of 2M formic acid and the enzyme-substrate products are extracted into chloroform. An aliquot of the extract is evaporated to dryness, reconstituted in ether to 1/10 original volume, spotted in thin layer chromatography plates and chromatographed. The peak areas of radioactivity representing the products are located by scanning the plates. The quantity of products formed is estimated by measuring the height of the radioactivity peaks observed on the chromatographic scans. Alternatively, the areas of radioactivity are scraped from the plate and the ^14 C quantitated by scintillation counting.

[2] = test system: SRS-A component of immunologically induced broncho-constriction; experiment: Effect on the SRS-A component of immunologically induced broncho-constriction in guinea pigs; type: in vivo; settings: guinea pig, intravenous, highest soluble dose (0.1 mg/kg)
Experimental: The test was carried out according to the following procedure:
Two weeks after immunization with egg albumin, guinea pigs are prepared for bronchoconstriction determination. One hour prior to antigen challenge, each animal is dosed orally with indomethacin and chlorpheniramine. Animals are anesthetized with sodium pentobarbital, the trachea cannulated and the animal artifically respired. Arachidonic acid is administered intravenously prior to antigen challenge. The resulting bronchoconstriction is recorded by the standard lung overflow procedure and the peak increase in intratracheal pressure (mm Hg) over a 10 minute observation period is recorded. Compounds are evaluated for their ability to prevent the increased intratracheal pressure in an experimental group of animals as compared to the medicated (indomethacin+chlorpheniramine+arachidonic acid) control group. The results are expressed in terms of percent inhibition or as ED50 values (effective dose in 50% of the animals).

[3] = molecular target: T2, cyclooxygenase (Rattus norvegicus, UniProt Q63921); experiment: Inhibition of cyclooxygenase derived from rat basophilic leukemia (RBL-1) cells, product C1 (PGD2); type: biochemical; settings: for inhibition at 1 µM: dose of 1 μM
T2 construct: microsomal fraction containing lipoxygenase and cyclooxygenase; endogenous in cells; host or cells: RBL-1 (rat basophilic leukemia) cells, homogenate / microsomal fraction
T2 sequence (Q63921 27-602): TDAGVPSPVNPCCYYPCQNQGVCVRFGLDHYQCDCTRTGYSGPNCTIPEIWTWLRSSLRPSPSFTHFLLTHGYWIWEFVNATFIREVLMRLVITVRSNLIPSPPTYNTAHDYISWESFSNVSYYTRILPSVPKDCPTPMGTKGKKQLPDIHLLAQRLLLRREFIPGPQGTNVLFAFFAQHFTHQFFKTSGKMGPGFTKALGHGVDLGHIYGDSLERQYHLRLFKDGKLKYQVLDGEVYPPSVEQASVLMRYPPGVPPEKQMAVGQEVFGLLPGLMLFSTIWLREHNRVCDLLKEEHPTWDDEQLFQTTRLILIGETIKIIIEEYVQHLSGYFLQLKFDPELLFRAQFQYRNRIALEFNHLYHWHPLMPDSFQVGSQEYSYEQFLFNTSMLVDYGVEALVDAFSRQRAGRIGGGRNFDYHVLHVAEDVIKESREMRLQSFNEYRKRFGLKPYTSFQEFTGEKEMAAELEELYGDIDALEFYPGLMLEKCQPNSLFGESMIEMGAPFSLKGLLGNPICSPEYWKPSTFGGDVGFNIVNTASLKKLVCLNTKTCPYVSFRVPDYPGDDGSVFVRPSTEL
Experimental: as §1, §2

[4] = read-out: % Inhibition of lipoxygenase (L1) formation
[5] = read-out: % Inhibition of lipoxygenase (L2) formation
[6] = read-out: % Inhibition of cyclooxygenase (C1) formation
[7] = dose of 1 μM, L1 = 5,12-di-HETE, read-out: % Inhibition of lipoxygenase (L1) formation
[8] = dose of 1 μM, L2 = 5-HETE, read-out: % Inhibition of lipoxygenase (L2) formation

SMILES | inhibition at 1 µM [3, 6] [%] | inhibition at 1 µM [1, 7] [%] | inhibition at 1 µM [1, 8] [%] | inhibition at 10 µM ([1]; L1 = 5,12-di-HETE, read-out: % Inhibition of lipoxygenase (L1) formation) [%] | inhibition at 10 µM ([1]; L2 = 5-HETE, read-out: % Inhibition of lipoxygenase (L2) formation) [%] | inhibition at 10 µM ([3]; dose of 10 μM, read-out: % Inhibition of cyclooxygenase (C1) formation) [%] | pIC50 ([1]; IC50 L1, L1 = 5,12-di-HETE) | pIC50 ([1]; IC50 L2, L2 = 5-HETE) | inhibition at 1 µM [1, 4] [%] | inhibition at 1 µM [1, 5] [%] | percent inhibition of increased intratracheal pressure (bronchoconstriction) [2] [%] | pIC50 [3]
O=C(c1ccccc1Nc1ccc(O)cc1)N1CCCCC1 [Example 1(d), 1-[2-(4-Hydroxyphenylamino)benzoyl]piperidine] | 0 | – | – | – | – | – | 5.46 | 6.22 | 19 | 64 | 48 | < 4.00
O=C1C=CC(=Nc2ccccc2C(=O)N2CCCCC2)C=C1 [Example 2, 1-{2-[(4-Oxo-2,5-cyclohexadien-1-ylidene)amino]benzoyl}piperidine] | 0 | – | – | – | – | – | 6.35 | 6.89 | 68 | 82 | – | < 6.00
NC(=O)c1ccccc1Nc1ccc(O)cc1 [Example 3(b), 2-(4-Hydroxyphenylamino)benzamide] | 14 | – | – | – | – | – | 6.51 | 6.82 | 78 | 83 | – | < 6.00
CCCNC(=O)c1ccccc1Nc1ccc(O)cc1 [Example 5(b), 2-(4-Hydroxyphenylamino)-N-propylbenzamide] | 6 | – | – | – | – | – | 6.89 | 6.96 | 62 | 85 | – | < 6.00
O=C(NC1CCCCC1)c1ccccc1Nc1ccc(O)cc1 [Example 12(b), N-Cyclohexyl-2-(4-hydroxyphenylamino)benzamide] | 0 | – | – | – | – | – | 6.92 | 6.96 | 80 | 94 | – | < 6.00
CCCN(CC)C(=O)c1ccccc1Nc1ccc(O)cc1 [Example 14(b), 2-(4-Hydroxyphenylamino)-N-ethyl-N-propylbenzamide] | 0 | – | – | – | – | – | 6.74 | 6.96 | 78 | 95 | – | < 6.00
O=C(c1ccccc1Nc1ccccc1O)N1CCCCC1 [Example 15(d), 1-[2-(2-Hydroxyphenylamino)benzoyl]piperidine] | 2 | – | – | – | – | – | 6.14 | 6.74 | 58 | 80 | – | < 6.00
CCN(CC)C(=O)c1cc(Cl)ccc1Nc1ccc(O)cc1 [Example 17(d), 5-Chloro-N,N-diethyl-2-(4-hydroxyphenylamino)benzamide] | 0 | 56 | 73 | – | – | – | – | – | – | – | – | –
O=C(c1cc(Cl)ccc1Nc1ccc(O)cc1)N1CCCCC1 [Example 18(b), 1-[5-Chloro-2-(4-hydroxyphenylamino)benzoyl]piperidine] | 16 | 63 | 75 | – | – | – | – | – | – | – | – | –
O=C(c1ccc(Cl)cc1Nc1ccc(O)cc1)N1CCCC1 [Example 19(d), 1-[4-Chloro-2-(4-hydroxyphenylamino)benzoyl]pyrrolidine] | 7 | 24 | 42 | – | – | – | – | – | – | – | – | –
O=C(c1ccc(Cl)cc1Nc1ccc(O)cc1)N1CCCCC1 [Example 20(b), 1-[4-Chloro-2-(4-hydroxyphenylamino)benzoyl]piperidine] | 12 | 32 | 44 | – | – | – | – | – | – | – | – | –
CNC(=O)c1ccc(Cl)cc1Nc1ccc(O)cc1 [Example 21(b), 4-Chloro-2-(4-hydroxyphenylamino)-N-methylbenzamide] | – | – | – | – | – | – | 6.44 | 6.74 | – | – | – | < 6.00
COc1ccc(Nc2ccc(O)cc2)c(C(=O)NCc2ccccc2)c1 [Example 22(d), 2-(4-Hydroxyphenylamino)-N-benzyl-5-methoxybenzamide] | 0 | – | – | – | – | – | 6.52 | 6.59 | 81 | 97 | – | < 6.00
COc1ccc(Nc2ccc(O)cc2)c(C(=O)N2CCCCC2)c1 [Example 23(b), 1-[2-(4-Hydroxyphenylamino)-5-methoxybenzoyl]piperidine] | 19 | – | – | – | – | – | 6.27 | 6.21 | 89 | 96 | – | < 6.00
O=C(c1ccccc1Nc1cccc(O)c1)N1CCCCC1 [Example 24(d), 1-[2-(3-Hydroxyphenylamino)benzoyl]piperidine] | – | – | – | 47 | 56 | 42 | – | – | – | – | – | –

Second part, led by results:

inhibition at 1 µM [3, 6] [%] | inhibition at 1 µM [1, 7] [%] | inhibition at 1 µM [1, 8] [%] | inhibition at 10 µM ([1]; L1 = 5,12-di-HETE, read-out: % Inhibition of lipoxygenase (L1) formation) [%] | inhibition at 10 µM ([1]; L2 = 5-HETE, read-out: % Inhibition of lipoxygenase (L2) formation) [%] | inhibition at 10 µM ([3]; dose of 10 μM, read-out: % Inhibition of cyclooxygenase (C1) formation) [%] | SMILES | pIC50 ([1]; IC50 L1, L1 = 5,12-di-HETE) | pIC50 ([1]; IC50 L2, L2 = 5-HETE) | inhibition at 1 µM [1, 4] [%] | inhibition at 1 µM [1, 5] [%] | percent inhibition of increased intratracheal pressure (bronchoconstriction) [2] [%] | pIC50 [3]
0 | 41 | 52 | – | – | – | O=C(c1ccccc1Nc1ccc(O)cc1)N1CCCC1 [Example 4(b), 1-[2-(4-Hydroxyphenylamino)benzoyl]pyrrolidine] | – | – | – | – | – | –
7 | 54 | 77 | – | – | – | CC1CCN(C(=O)c2ccccc2Nc2ccc(O)cc2)CC1 [Example 6(b), 1-[2-(4-Hydroxyphenylamino)benzoyl]-4-methylpiperidine] | – | – | – | – | – | –
2 | 23 | 48 | – | – | – | CNC(=O)c1ccccc1Nc1ccc(O)cc1 [Example 7(b), 2-(4-Hydroxyphenylamino)-N-methylbenzamide] | – | – | – | – | – | –
0 | 33 | 63 | – | – | – | CCN(CC)C(=O)c1ccccc1Nc1ccc(O)cc1 [Example 8(b), N,N-Diethyl-2-(4-hydroxyphenylamino)benzamide] | – | – | – | – | – | –
0 | 72 | 78 | – | – | – | CC(C)NC(=O)c1ccccc1Nc1ccc(O)cc1 [Example 9(b), 2-(4-Hydroxyphenylamino)-N-isopropylbenzamide] | – | – | – | – | – | –
1 | 34 | 56 | – | – | – | CN(C)C(=O)c1ccccc1Nc1ccc(O)cc1 [Example 10(b), 2-(4-Hydroxyphenylamino)-N,N-dimethylbenzamide] | – | – | – | – | – | –
0 | 66 | 77 | – | – | – | CCN(C)C(=O)c1ccccc1Nc1ccc(O)cc1 [Example 13(b), 2-(4-Hydroxyphenylamino)-N-ethyl-N-methylbenzamide] | – | – | – | – | – | –
1 | 37 | 42 | – | – | – | O=C(c1ccccc1Nc1ccc(O)cc1)N1CCOCC1 [Example 16(c), 4-[2-(4-Hydroxyphenylamino)benzoyl]morpholine] | – | – | – | – | – | –
